Measurements reported in the NIST ThermoML archive (doi:10.1021/acs.jced.8b00349).

Experiment: mn = molality of the nth substance listed, in mol/kg
Details: 101 kPa, Liquid; for viscosity: Falling or rolling sphere viscometry; for speed of sound: Frequency=3 MHz, Single path-length method; for mass density: Vibrating tube method

C[n+]1ccn(CCCCCn2cc[n+](C)c2)c1.[Br-].[Br-] + O
Details	mass density [kg/m3]	speed of sound [m/s]	viscosity [mPa·s]
293.15 K, m1 = 0.03341	1002.35	1488.3	1.021
293.15 K, m1 = 0.04614	1003.89	1490.3	1.027
293.15 K, m1 = 0.05646	1005.11	1491.6	1.032
293.15 K, m1 = 0.06717	1006.38	1493.3	1.037
293.15 K, m1 = 0.0777	1007.58	1494.8	1.042
293.15 K, m1 = 0.08857	1008.85	1496.4	1.047
293.15 K, m1 = 0.09671	1009.75	1497.3	1.05
298.15 K, m1 = 0.03341	1001.16	1501.9	0.908
298.15 K, m1 = 0.04614	1002.7	1503.7	0.914
298.15 K, m1 = 0.05646	1003.91	1505	0.918
298.15 K, m1 = 0.06717	1005.17	1506.5	0.924
298.15 K, m1 = 0.0777	1006.38	1507.8	0.928
298.15 K, m1 = 0.08857	1007.62	1509.2	0.933
298.15 K, m1 = 0.09671	1008.51	1510.2	0.936
303.15 K, m1 = 0.03341	999.742	1514.4	0.815
303.15 K, m1 = 0.04614	1001.27	1515.9	0.821
303.15 K, m1 = 0.05646	1002.47	1517.1	0.825
303.15 K, m1 = 0.06717	1003.73	1518.5	0.83
303.15 K, m1 = 0.0777	1004.93	1519.8	0.835
303.15 K, m1 = 0.08857	1006.16	1520.9	0.839
303.15 K, m1 = 0.09671	1007.05	1521.8	0.843
308.15 K, m1 = 0.03341	998.108	1523.7	0.737
308.15 K, m1 = 0.04614	999.627	1525.1	0.741
308.15 K, m1 = 0.05646	1000.83	1526.4	0.747
308.15 K, m1 = 0.06717	1002.07	1527.4	0.752
308.15 K, m1 = 0.0777	1003.27	1528.7	0.757
308.15 K, m1 = 0.08857	1004.5	1529.9	0.762
308.15 K, m1 = 0.09671	1005.38	1530.7	0.766
313.15 K, m1 = 0.03341	996.275	1533.2	0.67
313.15 K, m1 = 0.04614	997.783	1534.3	0.676
313.15 K, m1 = 0.05646	998.981	1535.4	0.681
313.15 K, m1 = 0.06717	1000.22	1536.5	0.685
313.15 K, m1 = 0.0777	1001.41	1537.5	0.689
313.15 K, m1 = 0.08857	1002.64	1538.6	0.694
313.15 K, m1 = 0.09671	1003.53	1539.4	0.697

C[n+]1ccn(CCCCn2cc[n+](C)c2)c1.[Br-].[Br-] + O
Details	mass density [kg/m3]	speed of sound [m/s]	viscosity [mPa·s]
293.15 K, m1 = 0.04944	1004.66	1489.8	1.026
293.15 K, m1 = 0.06711	1006.89	1492	1.034
293.15 K, m1 = 0.07912	1008.4	1493.5	1.039
293.15 K, m1 = 0.0927	1010.06	1495.1	1.044
293.15 K, m1 = 0.1021	1011.22	1496.2	1.049
298.15 K, m1 = 0.04944	1003.45	1503.2	0.914
298.15 K, m1 = 0.06711	1005.68	1505.2	0.921
298.15 K, m1 = 0.07912	1007.18	1506.6	0.926
298.15 K, m1 = 0.0927	1008.82	1508	0.931
298.15 K, m1 = 0.1021	1009.97	1509	0.935
303.15 K, m1 = 0.04944	1002.01	1515.4	0.821
303.15 K, m1 = 0.06711	1004.22	1517.1	0.828
303.15 K, m1 = 0.07912	1005.71	1518.5	0.833
303.15 K, m1 = 0.0927	1007.35	1519.8	0.839
303.15 K, m1 = 0.1021	1008.49	1520.7	0.842
308.15 K, m1 = 0.04944	1000.35	1524.7	0.744
308.15 K, m1 = 0.06711	1002.54	1526.3	0.751
308.15 K, m1 = 0.07912	1004.03	1527.3	0.756
308.15 K, m1 = 0.0927	1005.67	1528.9	0.762
308.15 K, m1 = 0.1021	1006.8	1529.5	0.765
313.15 K, m1 = 0.04944	998.497	1534.1	0.677
313.15 K, m1 = 0.06711	1000.68	1535.5	0.683
313.15 K, m1 = 0.07912	1002.15	1536.5	0.688
313.15 K, m1 = 0.0927	1003.79	1537.8	0.692
313.15 K, m1 = 0.1021	1004.91	1538.5	0.696

C[n+]1ccn(CCCn2cc[n+](C)c2)c1.[Br-].[Br-] [1,3-bis[3-methylimidazolium-1-yl]propane dibromide] + O
Details	mass density [kg/m3]	speed of sound [m/s]	viscosity [mPa·s]
293.15 K, m1 = 0.03423	1002.81	1486.3	1.019
293.15 K, m1 = 0.04998	1004.86	1488.1	1.025
293.15 K, m1 = 0.06131	1006.3	1489.3	1.029
293.15 K, m1 = 0.07119	1007.55	1490.3	1.033
293.15 K, m1 = 0.08049	1008.72	1491.3	1.037
293.15 K, m1 = 0.089	1009.76	1492.2	1.04
293.15 K, m1 = 0.09492	1010.48	1492.8	1.042
298.15 K, m1 = 0.03423	1001.61	1499.9	0.906
298.15 K, m1 = 0.04998	1003.65	1501.6	0.912
298.15 K, m1 = 0.06131	1005.1	1502.6	0.917
298.15 K, m1 = 0.07119	1006.34	1503.5	0.921
298.15 K, m1 = 0.08049	1007.49	1504.6	0.924
298.15 K, m1 = 0.089	1008.53	1505.4	0.927
298.15 K, m1 = 0.09492	1009.24	1505.8	0.929
303.15 K, m1 = 0.03423	1000.19	1512.3	0.814
303.15 K, m1 = 0.04998	1002.22	1513.9	0.82
303.15 K, m1 = 0.06131	1003.66	1514.9	0.824
303.15 K, m1 = 0.07119	1004.89	1515.8	0.828
303.15 K, m1 = 0.08049	1006.04	1516.6	0.831
303.15 K, m1 = 0.089	1007.06	1517.5	0.835
303.15 K, m1 = 0.09492	1007.78	1518	0.838
308.15 K, m1 = 0.03423	998.558	1521.8	0.737
308.15 K, m1 = 0.04998	1000.57	1523.2	0.743
308.15 K, m1 = 0.06131	1002.01	1524	0.747
308.15 K, m1 = 0.07119	1003.23	1524.8	0.751
308.15 K, m1 = 0.08049	1004.38	1525.7	0.755
308.15 K, m1 = 0.089	1005.39	1526.4	0.758
308.15 K, m1 = 0.09492	1006.11	1526.8	0.76
313.15 K, m1 = 0.03423	996.725	1531.6	0.675
313.15 K, m1 = 0.04998	998.73	1532.7	0.679
313.15 K, m1 = 0.06131	1000.15	1533.5	0.683
313.15 K, m1 = 0.07119	1001.38	1534.1	0.689
313.15 K, m1 = 0.08049	1002.51	1534.8	0.686
313.15 K, m1 = 0.089	1003.53	1535.5	0.689
313.15 K, m1 = 0.09492	1004.24	1535.8	0.691
